Test results published in patent publication US9718822B2, “Macrocyclic compounds as Trk kinase inhibitors” (Array BioPharma, Inc., priority 2010, dated 2017).
Read-outs that look alike come from different tables or passages of the source.

Key:
[1] = target: His-tagged recombinant human TrkA (cytoplasmic domain) (Homo sapiens (Human), UniProt P04629); assay: TrkA Binding Assay (LanthaScreen Eu Kinase Binding Assay)
Procedure: The ability of a compound to bind to TrkA was measured by Invitrogen's LanthaScreen™ Eu Kinase Binding Assay. […] After a 60-minute incubation at 22° C., the reaction was measured using the EnVision via TR-FRET dual wavelength detection, and the POC was calculated from the emission ratio. The compound dose response data was fit to a 4-parameter logistic model and IC50 was defined as the concentration of compound at 50 POC.

[2] = not given; remark: listed apart in the source
[3] = target: histidine-tagged recombinant human TrkA, cytoplasmic domain (Homo sapiens (Human), UniProt P04629); assay: TrkA ELISA Assay; type: biochemical; details: read-out: TrkA Elisa Enzyme Assay IC50; further: 2.5 nM TrkA
histidine-tagged recombinant human TrkA, cytoplasmic domain, sequence (P04629 440-796): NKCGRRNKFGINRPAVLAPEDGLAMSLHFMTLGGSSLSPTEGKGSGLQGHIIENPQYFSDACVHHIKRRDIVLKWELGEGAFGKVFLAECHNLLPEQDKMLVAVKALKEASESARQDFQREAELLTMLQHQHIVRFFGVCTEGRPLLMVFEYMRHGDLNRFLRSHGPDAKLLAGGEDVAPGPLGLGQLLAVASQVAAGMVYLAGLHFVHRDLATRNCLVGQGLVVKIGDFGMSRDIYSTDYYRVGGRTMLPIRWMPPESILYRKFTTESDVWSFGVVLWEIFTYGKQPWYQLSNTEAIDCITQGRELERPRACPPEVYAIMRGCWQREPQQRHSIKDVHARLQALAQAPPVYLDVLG
Procedure: An enzyme-linked immunosorbant assay (ELISA) was used to assess TrkA kinase activity in the presence of inhibitors. Immulon 4HBX 384-well microtiter plates (Thermo part #8755) were coated with a 0.025 mg/mL solution of poly (Glu, Ala, Tyr; 6:3:1; Sigma P3899). […] The assay buffer consisted of 25 mM MOPS pH 7.5, 0.005% (v/v) Triton X-100 and 5 mM MgCl2. The reaction mixture was removed from the plate by washing with PBS containing 0.1% (v/v) Tween 20. The phosphorylated reaction product was detected using 0.2 μg/mL of a phosphotyrosine specific monoclonal antibody (clone PY20) conjugated to horseradish peroxidase in conjunction with the TMB Peroxidase Substrate System (KPL). After the addition of 1M phosphoric acid, the chromogenic substrate color intensity was quantitated via absorbance at 450 nm. IC50 values were calculated using either a 4 or 5-parameter logistic curve fit.
Table 1 provides averaged IC50 values for compounds of the invention when tested in this assay.

His-tagged recombinant human TrkA (cytoplasmic domain), sequence (P04629 440-796): as above

IC50 [1] [µM] | IC50 [3] [µM] | SMILES | ring closure, isolated yield (from NCCCn1cc(F)cc([C@H]2CCCN2c2ccn3ncc(C(=O)O)c3n2)c1=O, amide bond, 14-membered ring, EDCI/HOBt/TEA, DMF/DCM 1:2, 26.7 mM, 6.0 h) [%] | ring closure, yield of all isomers ([2]; from NCCCn1cc(F)cc([C@H]2CCCN2c2ccn3ncc(C(=O)O)c3n2)c1=O, amide bond, EDCI/HOBt, DCM, 26.7 mM, 25.0 °C, 6.0 h) [%] | ring closure, isolated yield (from O=C(NC[C@H](O)CCl)c1cnn2ccc(N3CCC[C@@H]3c3cc(F)c[nH]c3=O)nc12, other bond, 14-membered ring, Cs2CO3, DMF, […], 85.0 °C, 2.0 h) [%] | ring closure, yield of all isomers ([2]; from O=C(NC[C@H](O)CCl)c1cnn2ccc(N3CCC[C@@H]3c3cc(F)c[nH]c3=O)nc12, amine bond, Cs2CO3, DMF, […], 85.0 °C, 2.0 h) [%] | ring closure, isolated yield (from O=C(Nc1ccnn1CCO)c1cnn2ccc(N3CCC[C@@H]3c3cc(F)cnc3O)nc12, ether bond, 15-membered ring, DEAD/PPh3, THF, 14.3 mM, 2 steps) [%] | ring closure, yield of all isomers ([2]; from COc1ncc(F)cc1[C@H]1CCCN1c1ccn2ncc(C(=O)Nc3ccnn3CCO[Si](c3ccccc3)(c3ccccc3)C(C)(C)C)c2n1, ether bond, DEAD/PPh3, THF, 14.25 mM, 25.0 °C, 18.0 h, 2 steps) [%]
0.001 to 0.1 | 0.001 to 0.1 | O=C1NCCCn2cc(F)cc(c2=O)[C@H]2CCCN2c2ccn3ncc1c3n2 [Example 1, (6R)-9-fluoro-2,11,15,19,20,23-hexaazapentacyclo[15.5.2.1^7,11.0^2,6.0^20,24]pentacosa-1(23),7,9,17(24),18,21-hexaene-16,25-dione] | 39 | 39 | – | – | – | –
0.001 to 0.1 | 0.001 to 0.1 | O=C1NC[C@H](O)Cn2cc(F)cc(c2=O)[C@H]2CCCN2c2ccn3ncc1c3n2 [Example 5, (6R,13S)-9-fluoro-13-hydroxy-2,11,15,19,20,23-hexaazapentacyclo-[15.5.2.1^7,11.0^2,6.0^20,24]pentacosa-1(23),7,9,17(24),18,21-hexaene-16,25-dione] | – | – | 12 | 27 | – | –
0.001 to 0.1 | – | O=C1Nc2ccnn2CCOc2ncc(F)cc2[C@H]2CCCN2c2ccn3ncc1c3n2 [Example 38, (6R)-9-fluoro-13-oxa-2,11,16,17,21,25,26,29-octaazahexacyclo [21.5.2.0^2,6.0^7,12.0^16,20.0^26,30]triaconta-1(29),7,9,11,17,19,23(30),24,27-nonaen-22-one] | – | – | – | – | 1.5 | 1.5
